{
  "source": "the supplement of paper PMC10307832",
  "assay_in_all_cases": "relative viability (nuclei count vs DMSO), 5 days (fraction); higher = more cells survive",
  "key": {"A-427": {"tested_on": "A-427", "outline": "(§1)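 Relative viability is defined as nuclei in treated wells over nuclei in vehicle wells. Duplicate plates were run and medians reported. Lung cancer cell lines in 1536-well plates were dosed by pin tool one day after seeding, with one drug or with a fixed anchor-drug dose plus five library-drug doses (not always all listed) in √10 steps, and nuclei were counted after 5 days.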"}, "COR-L 105": {"tested_on": "COR-L 105", "outline": "as §1"}, "EPLC-272H": {"tested_on": "EPLC-272H", "outline": "as §1"}, "HCC-366": {"tested_on": "HCC-366", "outline": "as §1"}, "HCC-78": {"tested_on": "HCC-78", "outline": "as §1"}, "HOP-62": {"tested_on": "HOP-62", "outline": "as §1"}, "LC-2-ad": {"tested_on": "LC-2-ad", "outline": "as §1"}, "LCLC-97TM1": {"tested_on": "LCLC-97TM1", "outline": "as §1"}, "LU99A": {"tested_on": "LU99A", "outline": "as §1"}, "LXF-289": {"tested_on": "LXF-289", "outline": "as §1"}, "NCI-H1755": {"tested_on": "NCI-H1755", "outline": "as §1"}, "NCI-H1792": {"tested_on": "NCI-H1792", "outline": "as §1"}, "NCI-H1793": {"tested_on": "NCI-H1793", "outline": "as §1"}, "NCI-H1915": {"tested_on": "NCI-H1915", "outline": "as §1"}, "NCI-H1944": {"tested_on": "NCI-H1944", "outline": "as §1"}, "NCI-H1975": {"tested_on": "NCI-H1975", "outline": "as §1"}, "NCI-H2085": {"tested_on": "NCI-H2085", "outline": "as §1"}, "NCI-H2170": {"tested_on": "NCI-H2170", "outline": "as §1"}, "NCI-H358": {"tested_on": "NCI-H358", "outline": "as §1"}, "NCI-H460": {"tested_on": "NCI-H460", "outline": "as §1"}, "SK-LU-1": {"tested_on": "SK-LU-1", "outline": "as §1"}, "UMC-11": {"tested_on": "UMC-11", "outline": "as §1"}},
  "data": [
    {"compound": "Oc1nc(-c2ccc(C(F)(F)F)cc2)nc2c1CSCC2", "note": "[XAV939] + CS(=O)(=O)CCNCc1ccc(-c2ccc3ncnc(Nc4ccc(OCc5cccc(F)c5)c(Cl)c4)c3c2)o1 [Lapatinib] (partner 2 µM)", "values": [
      {"measurement": "relative viability", "setting": "A-427; first compound 0.08 µM", "value": 1.09},
      {"measurement": "relative viability", "setting": "A-427; first compound 0.253 µM", "value": 1.02},
      {"measurement": "relative viability", "setting": "A-427; first compound 0.8 µM", "value": 1.11},
      {"measurement": "relative viability", "setting": "A-427; first compound 2.53 µM", "value": 1.03},
      {"measurement": "relative viability", "setting": "COR-L 105; first compound 0.08 µM", "value": 0.426},
      {"measurement": "relative viability", "setting": "COR-L 105; first compound 0.253 µM", "value": 0.347},
      {"measurement": "relative viability", "setting": "COR-L 105; first compound 0.8 µM", "value": 0.37},
      {"measurement": "relative viability", "setting": "COR-L 105; first compound 2.53 µM", "value": 0.301},
      {"measurement": "relative viability", "setting": "EPLC-272H; first compound 0.08 µM", "value": 1.06},
      {"measurement": "relative viability", "setting": "EPLC-272H; first compound 0.253 µM", "value": 0.893},
      {"measurement": "relative viability", "setting": "EPLC-272H; first compound 0.8 µM", "value": 1},
      {"measurement": "relative viability", "setting": "EPLC-272H; first compound 2.53 µM", "value": 0.864},
      {"measurement": "relative viability", "setting": "HCC-366; first compound 0.08 µM", "value": 1.23},
      {"measurement": "relative viability", "setting": "HCC-366; first compound 0.253 µM", "value": 0.861},
      {"measurement": "relative viability", "setting": "HCC-366; first compound 0.8 µM", "value": 1.01},
      {"measurement": "relative viability", "setting": "HCC-366; first compound 2.53 µM", "value": 0.96},
      {"measurement": "relative viability", "setting": "HCC-78; first compound 0.08 µM", "value": 0.868},
      {"measurement": "relative viability", "setting": "HCC-78; first compound 0.253 µM", "value": 0.508},
      {"measurement": "relative viability", "setting": "HCC-78; first compound 0.8 µM", "value": 0.326},
      {"measurement": "relative viability", "setting": "HCC-78; first compound 2.53 µM", "value": 0.457},
      {"measurement": "relative viability", "setting": "HOP-62; first compound 0.08 µM", "value": 1.1},
      {"measurement": "relative viability", "setting": "HOP-62; first compound 0.253 µM", "value": 0.963},
      {"measurement": "relative viability", "setting": "HOP-62; first compound 0.8 µM", "value": 0.918},
      {"measurement": "relative viability", "setting": "HOP-62; first compound 2.53 µM", "value": 0.735},
      {"measurement": "relative viability", "setting": "LC-2-ad; first compound 0.08 µM", "value": 0.886},
      {"measurement": "relative viability", "setting": "LC-2-ad; first compound 0.253 µM", "value": 0.749},
      {"measurement": "relative viability", "setting": "LC-2-ad; first compound 0.8 µM", "value": 0.954},
      {"measurement": "relative viability", "setting": "LC-2-ad; first compound 2.53 µM", "value": 0.862},
      {"measurement": "relative viability", "setting": "LCLC-97TM1; first compound 0.08 µM", "value": 1.11},
      {"measurement": "relative viability", "setting": "LCLC-97TM1; first compound 0.253 µM", "value": 0.959},
      {"measurement": "relative viability", "setting": "LCLC-97TM1; first compound 0.8 µM", "value": 0.668},
      {"measurement": "relative viability", "setting": "LCLC-97TM1; first compound 2.53 µM", "value": 0.81},
      {"measurement": "relative viability", "setting": "LU99A; first compound 0.08 µM", "value": 0.964},
      {"measurement": "relative viability", "setting": "LU99A; first compound 0.253 µM", "value": 0.851},
      {"measurement": "relative viability", "setting": "LU99A; first compound 0.8 µM", "value": 0.995},
      {"measurement": "relative viability", "setting": "LU99A; first compound 2.53 µM", "value": 0.939},
      {"measurement": "relative viability", "setting": "LXF-289; first compound 0.08 µM", "value": 0.898},
      {"measurement": "relative viability", "setting": "LXF-289; first compound 0.253 µM", "value": 0.826},
      {"measurement": "relative viability", "setting": "LXF-289; first compound 0.8 µM", "value": 0.897},
      {"measurement": "relative viability", "setting": "LXF-289; first compound 2.53 µM", "value": 0.919},
      {"measurement": "relative viability", "setting": "NCI-H1755; first compound 0.08 µM", "value": 0.92},
      {"measurement": "relative viability", "setting": "NCI-H1755; first compound 0.253 µM", "value": 0.87},
      {"measurement": "relative viability", "setting": "NCI-H1755; first compound 0.8 µM", "value": 0.896},
      {"measurement": "relative viability", "setting": "NCI-H1755; first compound 2.53 µM", "value": 0.955},
      {"measurement": "relative viability", "setting": "NCI-H1792; first compound 0.08 µM", "value": 1.14},
      {"measurement": "relative viability", "setting": "NCI-H1792; first compound 0.253 µM", "value": 0.523},
      {"measurement": "relative viability", "setting": "NCI-H1792; first compound 0.8 µM", "value": 0.805},
      {"measurement": "relative viability", "setting": "NCI-H1792; first compound 2.53 µM", "value": 0.806},
      {"measurement": "relative viability", "setting": "NCI-H1793; first compound 0.08 µM", "value": 0.892},
      {"measurement": "relative viability", "setting": "NCI-H1793; first compound 0.253 µM", "value": 0.602},
      {"measurement": "relative viability", "setting": "NCI-H1793; first compound 0.8 µM", "value": 0.714},
      {"measurement": "relative viability", "setting": "NCI-H1793; first compound 2.53 µM", "value": 0.877},
      {"measurement": "relative viability", "setting": "NCI-H1915; first compound 0.08 µM", "value": 1.13},
      {"measurement": "relative viability", "setting": "NCI-H1915; first compound 0.253 µM", "value": 0.934},
      {"measurement": "relative viability", "setting": "NCI-H1915; first compound 0.8 µM", "value": 1.05},
      {"measurement": "relative viability", "setting": "NCI-H1915; first compound 2.53 µM", "value": 0.993},
      {"measurement": "relative viability", "setting": "NCI-H1944; first compound 0.08 µM", "value": 1.16},
      {"measurement": "relative viability", "setting": "NCI-H1944; first compound 0.253 µM", "value": 0.865},
      {"measurement": "relative viability", "setting": "NCI-H1944; first compound 0.8 µM", "value": 0.834},
      {"measurement": "relative viability", "setting": "NCI-H1944; first compound 2.53 µM", "value": 0.679},
      {"measurement": "relative viability", "setting": "NCI-H1975; first compound 0.08 µM", "value": 0.733},
      {"measurement": "relative viability", "setting": "NCI-H1975; first compound 0.253 µM", "value": 0.655},
      {"measurement": "relative viability", "setting": "NCI-H1975; first compound 0.8 µM", "value": 0.753},
      {"measurement": "relative viability", "setting": "NCI-H1975; first compound 2.53 µM", "value": 0.646},
      {"measurement": "relative viability", "setting": "NCI-H2085; first compound 0.08 µM", "value": 0.692},
      {"measurement": "relative viability", "setting": "NCI-H2085; first compound 0.253 µM", "value": 0.699},
      {"measurement": "relative viability", "setting": "NCI-H2085; first compound 0.8 µM", "value": 0.743},
      {"measurement": "relative viability", "setting": "NCI-H2085; first compound 2.53 µM", "value": 0.649},
      {"measurement": "relative viability", "setting": "NCI-H2170; first compound 0.08 µM", "value": 0.259},
      {"measurement": "relative viability", "setting": "NCI-H2170; first compound 0.253 µM", "value": 0.263},
      {"measurement": "relative viability", "setting": "NCI-H2170; first compound 0.8 µM", "value": 0.267},
      {"measurement": "relative viability", "setting": "NCI-H2170; first compound 2.53 µM", "value": 0.261},
      {"measurement": "relative viability", "setting": "NCI-H358; first compound 0.08 µM", "value": 0.502},
      {"measurement": "relative viability", "setting": "NCI-H358; first compound 0.253 µM", "value": 0.469},
      {"measurement": "relative viability", "setting": "NCI-H358; first compound 0.8 µM", "value": 0.494},
      {"measurement": "relative viability", "setting": "NCI-H358; first compound 2.53 µM", "value": 0.434},
      {"measurement": "relative viability", "setting": "NCI-H460; first compound 0.08 µM", "value": 1.38},
      {"measurement": "relative viability", "setting": "NCI-H460; first compound 0.253 µM", "value": 0.723},
      {"measurement": "relative viability", "setting": "NCI-H460; first compound 0.8 µM", "value": 0.91},
      {"measurement": "relative viability", "setting": "NCI-H460; first compound 2.53 µM", "value": 0.937},
      {"measurement": "relative viability", "setting": "SK-LU-1; first compound 0.08 µM", "value": 0.858},
      {"measurement": "relative viability", "setting": "SK-LU-1; first compound 0.253 µM", "value": 0.845},
      {"measurement": "relative viability", "setting": "SK-LU-1; first compound 0.8 µM", "value": 0.863},
      {"measurement": "relative viability", "setting": "SK-LU-1; first compound 2.53 µM", "value": 0.906},
      {"measurement": "relative viability", "setting": "UMC-11; first compound 0.08 µM", "value": 1.15},
      {"measurement": "relative viability", "setting": "UMC-11; first compound 0.253 µM", "value": 0.742},
      {"measurement": "relative viability", "setting": "UMC-11; first compound 0.8 µM", "value": 0.97},
      {"measurement": "relative viability", "setting": "UMC-11; first compound 2.53 µM", "value": 0.921}
    ]}
  ]
}
